“Also recorded” adds a separate entry of the source.
Legend:
VCAM-1 mRNA = experiment: ox-LDL-induced VCAM-1 mRNA expression in HUVECs (q-PCR); type: cell-based, human; conditions: 5 μg/mL ox-LDL for 6 hrs
Experimental: FIG. 4A, FIG. 4B, FIG. 4C, FIG. 4D and FIG. 4E depict the effect of lead molecules on ox-LDL-induced the activation of MAPKs in HUVECs, VCAM-1 expression and monocyte adhesion onto HUVECs. […] (FIG. 4B) Western blot analyses showing phospho-p38MAPK expression in HUVECs following exposure to 200 nM of each compound for 30 min, and subsequently exposed to 5 μg/mL ox-LDL for 6 hours. […] (FIG. 4D) The variation of VCAM-1 mRNA expression levels with different concentrations of the led compounds. The concentrations are indicated on the X-axis and the VCAM-1 mRNA levels are shown on the Y-axis. The plots for all five molecules are shown in separate colors. […]
(§1) It is known that the activation of LOX-1 by ox-LDL in endothelial cells stimulates the expression of leukocyte adhesion molecules^26. In this study, VCAM-1 expression in HUVECs in the presence of 5 μg/ml ox-LDL was measured. […] VCAM-1 mRNA expression in HUVECs exposed to 5 μg/mL ox-LDL for 6 hrs was also measured.
HUVECs were plated into 12-well plates, and treated with 0, 20, 200 and 2000 nM of each of 5 molecules […] for 30 min, and subsequently exposed to […] ox-LDL for 6 h at 37° C. […] Data was analyzed by using MX3000P software. Relative mRNA expression was quantified using the comparative threshold cycle (Ct) method. […]

[1] = system: VCAM-1 protein expression; experiment: ox-LDL-induced VCAM-1 protein expression in HUVECs (Western blotting); type: cell-based, human; conditions: 200 nM, 5 μg/ml ox-LDL
Experimental: FIG. 4A, FIG. 4B, FIG. 4C, FIG. 4D and FIG. 4E depict the effect of lead molecules on ox-LDL-induced the activation of MAPKs in HUVECs, VCAM-1 expression and monocyte adhesion onto HUVECs. […] (FIG. 4B) Western blot analyses showing phospho-p38MAPK expression in HUVECs following exposure to 200 nM of each compound for 30 min, and subsequently exposed to 5 μg/mL ox-LDL for 6 hours. […] (FIG. 4D) The variation of VCAM-1 mRNA expression levels with different concentrations of the led compounds. The concentrations are indicated on the X-axis and the VCAM-1 mRNA levels are shown on the Y-axis. The plots for all five molecules are shown in separate colors. […] Graphs show data as mean (±SD); n=3 (for Western blot and PCR assays) or n=20 (for monocyte adhesion assay). *P<0.01 vs. control; #P<0.01 or <0.05 vs. ox-LDL group.
as §1
HUVECs were plated into 6-well cell culture plates. When the cells were reached 70% confluence, they were treated with 200 nM of each of 5 molecules for 30 min, and subsequently exposed to […] ox-LDL for 6 h. After washing with PBS for 2 times, the cells were treated with Cell Lysis Buffer (Promega, Madison, Wis.) with protease Inhibitor and phosphatase Inhibitor (Sigma-Aldrich, St. Louis, Mo.). The protein concentrations were measured by Bradford protein assay. Proteins (20 tg) were separated by electrophoresis in 12% precast SDS-PAGE gels, and were transferred onto Nitrocellulose Blotting Membrane (GE Healthcare Life Science, Piscataway, N.J.). The membranes were then incubated with LOX-1, VCAM-1 (Abcam, Cambridge, Mass.), ERK1/2, phospho-ERK1/2, phospho-p38MAPK (Cell Signaling Technology, Inc., Danvers, Mass.), or […] (Santa Cruz Biotechnology, Inc., Dallas, Tex.) primary antibodies (1:1000˜1:2000) in blocking solution at 4° C. overnight. Following wash with TBS-1 for 3 times, the blots were incubated with HRP-conjugated secondary antibodies (1:10000) in blocking solution for 1 hour at room temperature. After 3 washes with PBS, the blots were treated with Western Blotting Luminol Reagents (Santa Cruz Biotechnology) for 3 min and then exposed to Blue Basic Autorad Film (GeneMate, Kaysville, Utah). The protein bands were scanned by a Gel Doc™ XR System (Bio-Rad, Hercules, Calif.), and the density of each band was quantified by Image J software. The relative expression of target proteins was calculated with comparison to […] bands.

[2] = Liver microsomal stability, human; type: in vitro ADME; conditions: human liver microsomes
Experimental: (§2) Metabolic stability or clearance is recognized as one of the main determinants of drug concentration in blood. The metabolic stability of Mol-5 was tested using liver microsomes form mice and humans to obtain stability ranking and intrinsic clearance.

[3] = Liver microsomal stability, mouse; type: in vitro ADME; conditions: mouse liver microsomes
Experimental: as §2

ECs = experiment: Second dose response of ox-LDL uptake by ECs (lower concentrations); type: cell-based; conditions: second dose response curve, estimated
Experimental: FIG. 6A depicts the IC50 for Mol-5. The x-axis represents Mol-5 concentration (nM) and the y-axis represents ox-LDL uptake by ECs. FIG. 6B depicts the ox-LDL uptake with Mol-5 inhibition.
For further characterization, human endothelial cells and fluorescently-labeled Dil-ox-LDL were used for measuring initiation of atherogenic process based on interaction of vascular wall with ox-LDL. Ox-LDL uptake by human umbilical vein endothelial cells (HUVECs) was measured after exposure to 200 nM of each compound using flow cytometry. […] The dose response to modulation of ox-LDL uptake by Mol-5 (0, 20, 200 and 2000 nM) was also measured in CHO cells overexpressing human LOX-1. […] A second dose response curve was conducted to narrow in on the effect of lower concentrations of Mol-5 on ox-LDL uptake (FIG. 6A). Using this information the EC50 was estimated to be […] (FIG. 6B).

Structure (SMILES) | effect on ox-LDL-mediated VCAM-1 mRNA upregulation (VCAM-1 mRNA) | effect on ox-LDL-induced VCAM-1 protein expression [1] | effect on ox-LDL-induced VCAM-1 protein expression ([1]; listed as MoL-4) | half-life [2] [min] | metabolic stability (in words) [2] | microsomal CLint [2] [µL/min/mg] | half-life [3] [min] | metabolic stability (in words) [3] | microsomal CLint [3] [µL/min/mg] | EC50 (ECs) [nM]
CCCn1c(CCNC(=O)CCCO)nc2ccccc21 [Mol-4] | significantly reduced; also recorded: significantly inhibited | significantly inhibited | significantly reduced |  |  |  |  |  |  | 
CCOCCCNC(=O)CCN1C(=O)COc2ccccc21 [Mol-1] |  | significantly reduced |  |  |  |  |  |  |  | 
Cc1cc(C)n(CC(O)COc2ccccc2)n1 (stereo not shown) [Mol-5, 1-(3,5-dimethyl-1H-pyrazol-1-yl)-3-phenoxypropan-2-ol] | significantly reduced; also recorded: significantly inhibited | significantly reduced; also recorded: significantly inhibited |  | 55.3 ± 2.2 | reasonable stability | 25.1 ± 1 | 1.7 ± 0.1 | low stability | 836 ± 40.8 | 64

From patent publication US11465972B2, “Inhibitors of oxidized low-density lipoprotein receptor 1 and methods of use thereof” (United States Government as represented by the Department …, priority 2015, dated 2022)
